Data as given in US7880007B2, “Bicyclic substituted phenyl piperidine modulators of muscarinic receptors” (Vertex Pharmaceuticals Incorporated, priority 2004, dated 2011).

What was measured:
Assay type in all cases: cell-based
M1 muscarinic receptor = molecular target: T1, M1 muscarinic receptor (Homo sapiens, UniProt P11229); assay: Functional mobilization of intracellular calcium (FLIPR), M1-CHO cells; details: for M1 Activity: M1-CHO cells, calcium mobilization (FLIPR)
T1 construct: expressed in transfected cells; host or cells: CHO (M1-CHO)
T1 sequence (P11229 1-460): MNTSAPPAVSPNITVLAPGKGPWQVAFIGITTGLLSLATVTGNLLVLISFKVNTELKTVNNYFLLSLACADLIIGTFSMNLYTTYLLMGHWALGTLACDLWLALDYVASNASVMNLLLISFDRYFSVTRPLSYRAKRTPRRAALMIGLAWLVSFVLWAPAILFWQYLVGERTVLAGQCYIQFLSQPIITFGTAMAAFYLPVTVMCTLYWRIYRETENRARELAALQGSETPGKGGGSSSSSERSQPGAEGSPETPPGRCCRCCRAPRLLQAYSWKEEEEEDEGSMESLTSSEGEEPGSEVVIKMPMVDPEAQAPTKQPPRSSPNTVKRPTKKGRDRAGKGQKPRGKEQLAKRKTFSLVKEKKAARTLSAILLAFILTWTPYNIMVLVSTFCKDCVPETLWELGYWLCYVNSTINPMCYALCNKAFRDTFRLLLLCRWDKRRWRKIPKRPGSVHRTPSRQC
How it was run: (§1)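 FLIPR fluorescence (ex 488, em 540 nm) recorded 60 sec after compound addition to dye-loaded CHO cells. Agonist mode: compound alone. Antagonist mode: 15 min compound pre-incubation, then carbachol at EC80, or co-application. Efficacy expressed as % of maximal carbachol response.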

M3 muscarinic receptor = molecular target: T2, M3 muscarinic receptor (Homo sapiens, UniProt P20309); assay: Functional mobilization of intracellular calcium (FLIPR), M3-CHO cells; details: for M3 Activity: M3-CHO cells, calcium mobilization (FLIPR)
T2 construct: expressed in transfected cells; host or cells: CHO (M3-CHO)
T2 sequence (P20309 whole entry): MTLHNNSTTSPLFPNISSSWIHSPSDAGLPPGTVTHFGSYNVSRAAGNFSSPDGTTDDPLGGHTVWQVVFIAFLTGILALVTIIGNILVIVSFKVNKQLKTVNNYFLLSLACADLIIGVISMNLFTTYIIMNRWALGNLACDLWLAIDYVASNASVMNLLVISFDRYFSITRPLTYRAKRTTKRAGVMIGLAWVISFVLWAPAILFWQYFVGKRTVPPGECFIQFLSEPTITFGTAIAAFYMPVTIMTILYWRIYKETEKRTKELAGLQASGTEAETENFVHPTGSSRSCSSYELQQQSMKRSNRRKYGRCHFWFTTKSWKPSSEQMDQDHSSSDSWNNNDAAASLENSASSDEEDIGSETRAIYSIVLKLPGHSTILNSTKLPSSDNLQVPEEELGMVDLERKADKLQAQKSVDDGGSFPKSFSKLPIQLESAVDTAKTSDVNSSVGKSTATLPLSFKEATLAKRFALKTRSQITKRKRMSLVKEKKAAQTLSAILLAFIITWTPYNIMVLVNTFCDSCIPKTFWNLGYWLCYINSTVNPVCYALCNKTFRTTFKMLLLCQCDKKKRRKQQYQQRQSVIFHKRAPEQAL
How it was run: as §1

M4 muscarinic receptor = molecular target: T3, M4 muscarinic receptor (Homo sapiens, UniProt P08173); assay: Functional mobilization of intracellular calcium (FLIPR), M4-CHO cells; details: for M4 Activity: M4-CHO cells, calcium mobilization (FLIPR)
T3 construct: expressed in transfected cells; host or cells: CHO (M4-CHO)
T3 sequence (P08173 1-479): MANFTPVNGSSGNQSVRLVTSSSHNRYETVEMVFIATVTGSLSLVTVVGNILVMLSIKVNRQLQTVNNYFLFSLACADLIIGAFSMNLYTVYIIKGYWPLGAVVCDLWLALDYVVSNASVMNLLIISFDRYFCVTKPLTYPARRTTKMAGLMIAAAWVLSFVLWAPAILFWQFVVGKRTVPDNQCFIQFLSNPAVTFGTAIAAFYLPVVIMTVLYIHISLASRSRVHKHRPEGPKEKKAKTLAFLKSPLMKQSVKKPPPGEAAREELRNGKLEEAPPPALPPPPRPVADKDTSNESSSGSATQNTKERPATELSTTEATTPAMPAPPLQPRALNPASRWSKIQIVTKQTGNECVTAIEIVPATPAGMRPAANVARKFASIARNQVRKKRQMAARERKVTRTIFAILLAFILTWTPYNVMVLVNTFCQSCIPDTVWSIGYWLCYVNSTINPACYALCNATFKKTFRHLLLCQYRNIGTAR
How it was run: as §1

M2 muscarinic receptor = molecular target: T4, M2 muscarinic receptor (Homo sapiens, UniProt P08172); assay: Functional mobilization of intracellular calcium (FLIPR), M2-CHO cells; details: for M2 Activity: M2-CHO cells, calcium mobilization (FLIPR)
T4 construct: expressed in transfected cells; host or cells: CHO (M2-CHO)
T4 sequence (P08172 1-466): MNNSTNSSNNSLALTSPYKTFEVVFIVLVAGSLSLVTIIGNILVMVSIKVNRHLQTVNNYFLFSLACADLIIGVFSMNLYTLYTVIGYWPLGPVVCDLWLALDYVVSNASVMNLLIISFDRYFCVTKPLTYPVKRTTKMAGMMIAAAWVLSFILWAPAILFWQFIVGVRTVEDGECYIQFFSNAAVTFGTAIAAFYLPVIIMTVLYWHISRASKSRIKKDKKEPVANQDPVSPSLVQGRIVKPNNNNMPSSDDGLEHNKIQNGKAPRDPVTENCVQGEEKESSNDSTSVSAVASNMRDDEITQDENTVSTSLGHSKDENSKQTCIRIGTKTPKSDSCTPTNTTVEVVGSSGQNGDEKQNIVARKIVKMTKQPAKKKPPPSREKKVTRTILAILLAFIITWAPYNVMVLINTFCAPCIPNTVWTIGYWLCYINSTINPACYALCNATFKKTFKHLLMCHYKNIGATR
How it was run: as §1

[1] = 100% efficacy = maximum response obtained with the Carbachol control

Structure (SMILES)	Emax (M1 muscarinic receptor; [1])	M1 Activity (M1 muscarinic receptor)	Emax (M3 muscarinic receptor; [1])	M3 Activity (M3 muscarinic receptor)	Emax (M4 muscarinic receptor; [1])	M4 Activity (M4 muscarinic receptor)	Emax (M2 muscarinic receptor; [1])	M2 Activity (M2 muscarinic receptor)	M1 Efficacy (M1 muscarinic receptor; [1])	M3 Efficacy (M3 muscarinic receptor; [1])	M4 Efficacy (M4 muscarinic receptor; [1])	M2 Efficacy (M2 muscarinic receptor; [1])
FC(F)(F)c1ccccc1C1CCN(C2CC3CCC(C3)C2)CC1 (stereo not drawn) [Compound 343]	25 to 100%	+ (activity was measured to be greater than 5.0 μM)	< 25%	+ (activity was measured to be greater than 5.0 μM)	25 to 100%	+++ (activity was measured to be less than 1.0 μM)	< 25%	+ (activity was measured to be greater than 5.0 μM)				
CCOC(=O)N1CCC(CN2CCC(c3cc(-c4ccc(C#N)cc4)ccc3OC)CC2)CC1 [Compound 345]	25 to 100%	++ (activity was measured to be from 1.0 μM to 5.0 μM)	< 25%	+ (activity was measured to be greater than 5.0 μM)	25 to 100%	+++ (activity was measured to be less than 1.0 μM)	< 25%	+ (activity was measured to be greater than 5.0 μM)				
COc1ccccc1C1CCN(CC2CC2)CC1 [Compound 346]	< 25%	+ (activity was measured to be greater than 5.0 μM)	< 25%	+ (activity was measured to be greater than 5.0 μM)	< 25%	+ (activity was measured to be greater than 5.0 μM)	< 25%	+ (activity was measured to be greater than 5.0 μM)				
COc1ccc(-c2ccccc2C(N)=O)cc1C1CCN([C@H]2C[C@H]3CC[C@H]2C3)CC1 [Compound 347]	< 25%	+ (activity was measured to be greater than 5.0 μM)	< 25%	+ (activity was measured to be greater than 5.0 μM)	25 to 100%	++ (activity was measured to be from 1.0 μM to 5.0 μM)	< 25%	+ (activity was measured to be greater than 5.0 μM)				
COc1cc(F)ccc1C1CCN(C2CCOCC2)CC1 [Compound 349]	25 to 100%	+ (activity was measured to be greater than 5.0 μM)	< 25%	+ (activity was measured to be greater than 5.0 μM)	25 to 100%	+++ (activity was measured to be less than 1.0 μM)	< 25%	+ (activity was measured to be greater than 5.0 μM)				
C=CCON=C1CCC(N2CCC(c3cc(Cl)ccc3OC)CC2)CC1 (stereo not drawn) [Compound 350]		+++ (activity was measured to be less than 1.0 μM)		+ (activity was measured to be greater than 5.0 μM)		+++ (activity was measured to be less than 1.0 μM)		++ (activity was measured to be from 1.0 μM to 5.0 μM)	++ (efficacy was calculated to be from 100% to 25%)	+ (efficacy was calculated to be less than 25%)	++ (efficacy was calculated to be from 100% to 25%)	+ (efficacy was calculated to be less than 25%)
COc1ccc(-c2ccc(C#N)cc2)cc1C1CCN(C2CCOCC2)CC1 [Compound 352]	25 to 100%	+ (activity was measured to be greater than 5.0 μM)	< 25%	+ (activity was measured to be greater than 5.0 μM)	25 to 100%	+ (activity was measured to be greater than 5.0 μM)	< 25%	+ (activity was measured to be greater than 5.0 μM)				
CNC(=O)c1ccc(-c2ccc(OC)c(C3CCN(C4CCCCC4)CC3)c2)cc1Cl [Compound 353]	< 25%	+ (activity was measured to be greater than 5.0 μM)	< 25%	+ (activity was measured to be greater than 5.0 μM)	25 to 100%	++ (activity was measured to be from 1.0 μM to 5.0 μM)	< 25%	+ (activity was measured to be greater than 5.0 μM)				
COc1ccc(F)cc1C1CCN([C@@H]2C[C@H]3CC[C@H]2C3)CC1 [Compound 354]	25 to 100%	+++ (activity was measured to be less than 1.0 μM)	< 25%	+ (activity was measured to be greater than 5.0 μM)	25 to 100%	+++ (activity was measured to be less than 1.0 μM)	25 to 100%	++ (activity was measured to be from 1.0 μM to 5.0 μM)				
CCOC(=O)N1C2CCC1CC(N1CCC(c3ccccc3OC(F)(F)F)CC1)C2 (stereo not drawn) [Compound 355]	25 to 100%	+++ (activity was measured to be less than 1.0 μM)	< 25%	+ (activity was measured to be greater than 5.0 μM)	25 to 100%	+++ (activity was measured to be less than 1.0 μM)	< 25%	+ (activity was measured to be greater than 5.0 μM)				
COc1ccc(Cl)cc1C1(F)CCN(C2CC3CCC(C3)C2)CC1 (stereo not drawn) [Compound 356]	25 to 100%	+ (activity was measured to be greater than 5.0 μM)	< 25%	+ (activity was measured to be greater than 5.0 μM)	25 to 100%	+++ (activity was measured to be less than 1.0 μM)	25 to 100%	+ (activity was measured to be greater than 5.0 μM)				
COc1ccc(-c2ccc(S(C)(=O)=O)cc2)cc1C1CCN(C2CCOCC2)CC1 [Compound 357]	< 25%	+ (activity was measured to be greater than 5.0 μM)	< 25%	+ (activity was measured to be greater than 5.0 μM)	< 25%	+ (activity was measured to be greater than 5.0 μM)	< 25%	+ (activity was measured to be greater than 5.0 μM)				
